“Also recorded” adds a separate entry of the source. No end group written: not given here.
How the values were obtained:
GPRC6A [1] = tested on: GPRC6A; design: method as in 2 sources, ref 5 = [5]; PMID 15576628; doi:10.1124/mol.104.007559; 5. Wellendorph P Deorphanization of GPRC6A: a promiscuous L-alpha-amino acid receptor with preference for basic amino acids Molecular Pharmacology 2005 67 3 589 97 10.1124/mol.104.007559 15576628 ||| ref 6 = [6]; PMID 20947496; doi:10.1074/jbc.M110.158063; 6. Pi M Parrill AL Quarles LD GPRC6A mediates the non-genomic effects of steroids Journal of Biological Chemistry 2010 285 51 39953 64 10.1074/jbc.M110.158063 20947496 PMC3000977; conditions: cited from earlier work
GPRC6A [2] = test: Displacement of labelled ucOCN by SHBG141–161 on HEK-293 cells transfected with human Gprc6a; format: binding; conditions: for staining signal for labelled ucOCN vs ucOCN alone: 1 nM biotinylated ucOCN, 1 h room temperature, binding buffer pH 7.4, streptavidin-FITC, image analysis, mean of 3 independent experiments
Method: The binding of SHBG141–161 to GPRC6A was assessed by displacement experiments as previously described. To this aim, HEK-293 cells were transfected with human Gprc6a gene (Fig. 2C-I,II). The efficiency of the procedure was evaluated by real-time PCR, allowing the identification of a specific signal for Gprc6a gene only in transfected cells. Accordingly, a specific membrane signal was observed by immunostaining only in transfected cells. On these bases, HEK-293 cells transfected with Gprc6a gene were incubated with 1 nM labelled ucOCN and SHBG141–161 at the concentration of 0, 10 nM (10×) and 100 nM (100×) (Fig. 2D-I,II).
Human embryonic kidney (HEK)-293T cells (passage number 11 to 15) were obtained from the American Type Culture Collection (ATCC®-LGC Standards Sesto San Giovanni, MI, Italy) and cultivated in DMEM [ATCC®; RRID 30–2002) and supplemented with 10% fetal bovine serum (Euroclone, Milano, Italy; RRID: ECS0180L) and 1%antibiotic/antimycotic mixture in a humidified incubator at 37 °C with 5% CO2. Expression vector containing wild-type (WT) human GPRC6A cDNA (OriGene Technologies, Inc) was used according to manufacturer’s instruction. Briefly, cultured HEK- 293 T cells at 70% of confluence were transfected by FuGENE 6 (Roche Diagnostics) with 1 μg/well of GPRC6A-pcDNA and maintained for 48 hours, followed by overnight starving in serum-free condition to achieve quiescence. HEK-293T cells transfected with empty vector were used as negative controls. Starved cells were fixed in 1% paraformaldehyde and used for binding assessment by incubation for 1 h at room temperature with biotinylated ucOCN, with or without SHBG141–161 in ice-cold-binding buffer (50 mM Tris-HCl [pH 7.4], 10 mM MgCl2, 0.1 mM EDTA, and 0.1% BSA) according to the different experimental conditions used. After extensive washing in cold PBS, samples were incubated with streptavidin-Fluorescein isothiocyanate (FITC) (dilution 1:200; Sigma-Aldrich; RRID: S3762). Evaluation of GPRC6A expression by immunofluorescence was performed as described for β-TC6 (see below). Computer assisted image analysis was performed by the ImageJ image analysis software, powered by routines specifically developed by our group as previously described[43],[44]. […]

MA-10 cells = test: Testosterone (T) release from Leydig MA-10 cells (GPRC6A-mediated); format: cell-based, Mouse; conditions: for T release vs basal: 48 hours; for agonist activity (T release) after GPRC6A blockade: pre-incubation with anti-GPRC6A polyclonal antibodies 20 mg/mL, 30 minutes at 37 °C; for effect of SHBG pre-incubation on T release induced by SHBG141–161: then SHBG141–161 10^−11M
Method: Human ucOCN was obtained from chemical decarboxylation of cxOCN, purchased from Bachem AG (Bachem, Bubendorf, Switzerland), as previously described. For displacement experiments, an aliquot ucOCN underwent chemical biotinylation as previously described[9],[41]. Unliganded human SHBG was purchased by […], Belgium). Human chorionic gonadotropin Gonasi was purchased by IBSA Farmaceutici Srl (Italy). Mouse Leydig-carcinoma cell line MA-10 (passage number 3 to 8; ATCC®; RRID: CRL-1573) were cultured on 0,1% gelatin/PBS-coated plasticware according to the manufacturer's instructions and maintained in DMEM:F12 Medium (ATCC®; RRID: 30-2006; pH 7,4) supplemented with additional 20 mM HEPES and horse serum to a final concentration of 15%. For immunofluorescence experiments, cells were let attach on 0,1% gelatin/PBS-coated round-coverslips (ø 13 mm, Menzel-Gläser-VWR International Srl, Milan, Italy) and then washed and fixed with 4% paraformaldehyde/PBS solution at room temperature for 15 min. After membrane permeabilization with 1% Triton X/PBS solution for 10 min at room temperature, cells were saturated with 5% bovine serum albumin/5% normal donkey serum/PBS solution for 1 hour and then incubated with rabbit-polyclonal anti-mouse GPRC6A IgG (dilution 1:200; Santa Cruz Biotechnology Inc. Heidelberg Germany; RRID: sc-67302,) and goat-polyclonal anti-human INSL3 IgG (dilution 1:200; Santa Cruz Biotechnology Inc; RRID: sc-48550) at 4 °C overnight. After extensive washing, primary immunoreaction was detected by appropriate secondary reagent, respectively: biotin conjugated-anti rabbit IgG (dilution 1:100; Vector Laboratories, Peterborough, UK; RRID: BA-1000) followed by Streptavidin […], (dilution 1:100; GeneTex/Prodotti Gianni, Milano, Italy; RRID: GTX85907) and FITC conjugated-anti goat IgG (dilution 1:100; Abcam, Milan, Italy; RRID: ab6737). Samples were then counterstained with 4',6-diamidino-2-phenylindole (DAPI), mounted with anti-fade buffer and then analyzed with Video-Confocal (VICO) fluorescence microscope (Nikon, Firenze, Italy). […] RRID: KGE010) according to manufacturer's instructions. Receptor blockade experiments were performed by pre-incubating cultured cells with anti-GPRC6A polyclonal antibodies (final concentration of […]; Santa Cruz Biotechnology Inc; RRID: sc-67302) for 30 minutes at 37 °C as previously described.

β-TC6 cells = test: Insulin release from Langerhans β-TC6 cells (GPRC6A-mediated); format: cell-based, Mouse; conditions: for insulin release vs basal: 2 hours at 37 °C in 3 mM glucose/HBSS; for agonist activity (insulin release) after GPRC6A blockade: pre-incubation with anti-GPRC6A polyclonal antibodies 20 mg/mL, 30 minutes at 37 °C; for effect of SHBG pre-incubation on insulin release induced by SHBG141–161: then SHBG141–161 10^−11M
[3] = Far-UV circular dichroism; format: physicochemical; conditions: 25 °C, PBS (20 mM sodium phosphate, pH 7.4, 0.1 M NaCl), 70 μg/ml
Method: The conformational properties of SHBG141–161 were investigated by far-UV circular dichroism (CD) on a Jasco J-710 spectropolarimeter, equipped with a Peltier temperature control system. The molar concentration of the peptide was determined spectrophotometrically by recording the absorbace at 257 nm, using an absorptivity value for phenylalanine of 200 M-1·cm-1. CD spectra were recorded at 25 °C in a 1-mm pathlength quartz cell at a scan-speed of 10 nm/min, with a response time of 16 sec, and resulted from the average of two accumulations after baseline subtraction. CD signal was expressed as the mean residue ellipticity (θ) = θobs·MRW/(10·l·c), where θobs is the observed signal in degrees, MRW is the protein mean residue weight, l is the cuvette pathlength in cm, and c is the protein concentration in g/ml.

[4] = tested on: extracellular domain of GPRC6A; conditions: previous study; immunoprecipitation assays; cited from earlier work
From the text: To this regard, our group recently reported that sex hormone-binding protein (SHBG), the major blood carrier of T, is able to bind the extrace ... || If on one hand these represent encouraging results about the reliability of GPRC6A as therapeutic target, on the other hand, drug peptides and biologics drown great interest for their favorable safety profile, target specificity and pharmacokinetics compared with traditional small-molecule drugs. To this regard, the metabotropic receptor GPRC6A has been widely investigated as the mediator of non-genomic effects of androgens.

[5] = SHBG141–161 concentrations greater than 10^−9 M, preliminary experiments, data not shown
[6] = SHBG 10^−14-10^−9M, any of the concentration tested
[7] = increasing SHBG, 1 hour at 37 °C

Molecule: N=C(N)NCCC[C@H](N)C(=O)O [L arginine]
- activation of GPRC6A (GPRC6A [1]): activated

Molecule: NCCCC[C@H](N)C(=O)O [L-lysine]
- activation of GPRC6A (GPRC6A [1]): activated

Molecule: C[C@]12CC[C@H]3[C@@H](CCC4=CC(=O)CC[C@@]43C)[C@@H]1CC[C@@H]2O [T, testosterone]
- non-genomic action mediated by GPRC6A (GPRC6A [1]): mediator of non-genomic action of T

Molecule: IALGGLLFPASNLRLPLVPAL [SHBG141–161]
- competition with ucOCN for binding to GPRC6A (overall result) (GPRC6A [2]; 0, 10 nM and 100 nM SHBG141–161, 1 nM labelled ucOCN): progressive reduction of the signal for labelled ucOCN; also recorded: compete with ucOCN for the binding to GPRC6A; also recorded: partial competition activity
- staining signal for labelled ucOCN vs ucOCN alone (GPRC6A [2]; SHBG141–161 10 nM (10×)): significant reduction of the staining signal for ucOCN
- staining signal for labelled ucOCN vs ucOCN alone (GPRC6A [2]; SHBG141–161 100 nM (100×)): significant reduction of the staining signal for ucOCN
- T release vs basal (MA-10 cells; SHBG141–161, particularly 10^−13 to 10^−11M, five independent experiments): increase of T release
- T release at high concentration (MA-10 cells; [5]): not effective
- agonist activity (T release) after GPRC6A blockade (MA-10 cells): completely abolished the agonist activity
- insulin release vs basal (β-TC6 cells; SHBG141–161 10^−13 to 10^−10 M, five independent experiments): significant increased insulin levels in culture supernatants
- insulin release at high concentration (β-TC6 cells; [5]): not effective
- agonist activity (insulin release) after GPRC6A blockade (β-TC6 cells): completely abolished the agonist activity
- conformation by far-UV CD [3]: random or non-regular conformation
- far-UV CD minimum [3]: 200 nm

Molecule: calcium
- activation of GPRC6A (GPRC6A [1]): activated

Molecule: magnesium
- activation of GPRC6A (GPRC6A [1]): activated

Molecule: ucOCN: Human ucOCN was obtained from chemical decarboxylation of cxOCN, purchased from Bachem AG (YLYQWLGAPVPYPDPLEPRREVCELNPDCDELADHIGFQEAYRRFYGPV; ends and bridges not checked; also: undercarboxylated by chemical decarboxylation of carboxylated OCN; UniProt P02818 52-100, looked up)
- membrane signal of labelled ucOCN alone, transfected cells (GPRC6A [2]; 1 nM labelled ucOCN, HEK-293 + GPRC6A): clear membrane signal associated with GPRC6A expression
- staining of labelled ucOCN, non-transfected cells (GPRC6A [2]; 1 nM labelled ucOCN, HEK-293 without GPRC6A): absence of significant staining in non-transfected cells
- agonist activity (T release) after GPRC6A blockade (MA-10 cells): completely abolished the agonist activity
- T release vs basal (MA-10 cells; ucOCN 0,5–2 nM): progressive and significant increase of T release
- agonist activity (insulin release) after GPRC6A blockade (β-TC6 cells): completely abolished the agonist activity
- insulin release vs basal (β-TC6 cells; ucOCN 0,5–2 nM): significant and dose dependent increase of insulin release

Molecule: zinc
- activation of GPRC6A (GPRC6A [1]): activated

B1: SHBG: Unliganded human SHBG was purchased by Affiland; the major blood carrier of T (protein, UniProt P04278 30-402, looked up)
Sex hormone-binding globulin: LRPVLPTQSAHDPPAVHLSNGPGQEPIAVMTFDLTKITKTSSSFEVRTWDPEGVIFYGDTNPKDDWFMLGLRDGRPEIQLHNHWAQLTVGAGPRLDDGRWHQVEVKMEGDSVLLEVDGEEVLRLRQVSGPLTSKRHPIMRIALGGLLFPASNLRLPLVPALDGCLRRDSWLDKQAEISASAPTSLRSCDVESNPGIFLPPGTQAEFNLRDIPQPHAEPWAFSLDLGLKQAAGSGHLLALGTPENPSWLSLHLQDQKVVLSSGSGPGLDLPLVLGLPLQLKLSMSRVVLSQGSKMKALALPPLGLAPLLNLWAKPQGRLFLGALPGEDSSTSFCLNGLWAQGQRLDVDQALNRSHEIWTHSCPQSPGNGTDASH
- effect of SHBG pre-incubation on T release induced by SHBG141–161 (MA-10 cells; SHBG 10^−12M, 1 hour at 37 °C): complete blunt of the secretory stimulating activity
- effect of SHBG pre-incubation on T release induced by SHBG141–161 (MA-10 cells; SHBG 10^−13M, 1 hour at 37 °C): significant reduction of T release; also recorded: significantly blunted
- induction of T release by SHBG alone (MA-10 cells; [6]): ineffective
- effect of SHBG pre-incubation on T release induced by hCG (MA-10 cells; SHBG, any of the concentration tested, 1 hour at 37 °C, then hCG 2,5 nM): negligible effect on T and insulin release
- effect of SHBG pre-incubation on T release induced by SHBG141–161 (MA-10 cells; [7]): progressive reduction of T and insulin release
- effect of SHBG pre-incubation on insulin release induced by SHBG141–161 (β-TC6 cells; SHBG 10^−12M, 1 hour at 37 °C): complete blunt of the secretory stimulating activity
- induction of insulin release by SHBG alone (β-TC6 cells; [6]): ineffective
- effect of SHBG pre-incubation on insulin release induced by IBMX/glucose (β-TC6 cells; SHBG, any of the concentration tested, 1 hour at 37 °C, then 15 mM glucose + 100 μM IBMX): negligible effect on T and insulin release
- effect of SHBG pre-incubation on insulin release induced by SHBG141–161 (β-TC6 cells; [7]): progressive reduction of T and insulin release
- binding to GPRC6A [4]: simple binding observed through immunoprecipitation assays; also recorded: able to bind the extracellular domain of GPRC6A

Reference: publication PMC6923452, “SHBG141–161 Domain-Peptide Stimulates GPRC6A-Mediated Response in Leydig and β-Langerhans cell lines” (Scientific Reports, 2019)
